According to patent US7601745B2, “Heterocyclic NF-kB inhibitors” (4SC AG, priority 2004, dated 2009):

The compounds below were run on A549-NF-κB-SEAP reporter cells (assay: Inhibition of NF-κB-induced inflammation ([…] NINA Instant Assay, SEAP reporter)). Conditions: compounds of formula (I); TNF-α stimulated reporter cells; test concentration not given.
Assay type: cell-based
Procedure, shortened: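 Reporter cells reactivated 18 h at 37° C, pre-incubated 4.5 h with compound (0.01 up to 100 μM), then stimulated with 2 ng/ml TNF-α for 22 h. SEAP measured by CSPD chemiluminescence (40 min) after endogenous phosphatase inactivation; EC50 fitted from quadruplicates.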

Structure (SMILES)	Biological activity (NF-κB inflammation assay, inhibition)
O=C(c1csc(C2CCN(Cc3ccc(F)cc3Cl)CC2)n1)N1CCN(c2cccc(C(F)(F)F)c2)CC1 [compound 171]	+ (“+” stands for 50-80% inhibition)
O=C(c1csc(C2CCN(Cc3ccc(OC(F)(F)F)cc3)CC2)n1)N1CCN(c2cccc(C(F)(F)F)c2)CC1 [compound 172]	+ (“+” stands for 50-80% inhibition)
COc1cccc(CN2CCC(c3nc(C(=O)N4CCN(c5cccc(C(F)(F)F)c5)CC4)cs3)CC2)c1 [compound 173]	+ (“+” stands for 50-80% inhibition)
O=C(c1csc(C2CCN(Cc3ccc(Br)cc3)CC2)n1)N1CCN(c2cccc(C(F)(F)F)c2)CC1 [compound 174]	+ (“+” stands for 50-80% inhibition)
O=C(c1csc(C2CCN(Cc3cc(C(F)(F)F)cc(C(F)(F)F)c3)CC2)n1)N1CCN(c2cccc(C(F)(F)F)c2)CC1 [compound 175]	+ (“+” stands for 50-80% inhibition)
COc1nc(OC)nc(N2CCC(c3nc(C(=O)N4CCN(c5cccc(C(F)(F)F)c5)CC4)cs3)CC2)n1 [compound 176]	+ (“+” stands for 50-80% inhibition)
O=C(c1csc(C2CCN(Cc3ccccc3)CC2)n1)N1CCN(c2cccc(C(F)(F)F)c2)CC1 [compound 177]	+ (“+” stands for 50-80% inhibition)
COc1cccc(N2CCC(c3nc(C(=O)N4CCN(c5cccc(C(F)(F)F)c5)CC4)cs3)CC2)c1 [compound 178]	+ (“+” stands for 50-80% inhibition)
O=C(Cc1ccc(F)cc1)N1CCC(c2nc(C(=O)N3CCN(c4ccccc4)CC3)cs2)CC1 [compound 180]	+ (“+” stands for 50-80% inhibition)
O=C(Cc1ccc(F)cc1)N1CCC(c2nc(C(=O)N3CCC(n4nnc5cc(C(F)(F)F)ccc54)CC3)cs2)CC1 [compound 181]	+ (“+” stands for 50-80% inhibition)
O=C(Cc1ccc(F)cc1)N1CCC(c2nc(C(=O)N3CCC(n4nnc5ccccc54)CC3)cs2)CC1 [compound 182]	+ (“+” stands for 50-80% inhibition)
O=C(O)c1cccnc1C(=O)N1CCC(c2nc(C(=O)N3CCN(c4cccc(C(F)(F)F)c4)CC3)cs2)CC1 [compound 183]	+ (“+” stands for 50-80% inhibition)
O=C(O)c1ccc(C(=O)O)c(C(=O)N2CCC(c3nc(C(=O)N4CCN(c5cccc(C(F)(F)F)c5)CC4)cs3)CC2)c1 [compound 184]	+ (“+” stands for 50-80% inhibition)
O=C(O)c1ccccc1C(=O)N1CCC(c2nc(C(=O)N3CCN(c4cccc(C(F)(F)F)c4)CC3)cs2)CC1 [compound 185]	+ (“+” stands for 50-80% inhibition)
O=C(O)c1cccc(O)c1C(=O)N1CCC(c2nc(C(=O)N3CCN(c4cccc(C(F)(F)F)c4)CC3)cs2)CC1 [compound 186]	+ (“+” stands for 50-80% inhibition)
O=C(O)c1cc(Cl)c(Cl)cc1C(=O)N1CCC(c2nc(C(=O)N3CCN(c4cccc(C(F)(F)F)c4)CC3)cs2)CC1 [compound 187]	+ (“+” stands for 50-80% inhibition)
O=C(O)C1=C(C(=O)N2CCC(c3nc(C(=O)N4CCN(c5cccc(C(F)(F)F)c5)CC4)cs3)CC2)CCC1 [compound 188]	+ (“+” stands for 50-80% inhibition)
O=C(O)C1CCCCC1C(=O)N1CCC(c2nc(C(=O)N3CCN(c4cccc(C(F)(F)F)c4)CC3)cs2)CC1 (stereo not drawn) [compound 189]	+ (“+” stands for 50-80% inhibition)
O=C(O)C1=C(C(=O)N2CCC(c3nc(C(=O)N4CCN(c5cccc(C(F)(F)F)c5)CC4)cs3)CC2)CCCC1 [compound 190]	+ (“+” stands for 50-80% inhibition)
O=C(O)C=CC(=O)N1CCC(c2nc(C(=O)N3CCN(c4cccc(C(F)(F)F)c4)CC3)cs2)CC1 [compound 191]	+ (“+” stands for 50-80% inhibition)
Cc1noc(C)c1S(=O)(=O)N1CCC(c2nc(C(=O)N3CCN(c4cccc(C(F)(F)F)c4)CC3)cs2)CC1 [compound 192]	+ (“+” stands for 50-80% inhibition)
O=C(c1csc(C2CCN(S(=O)(=O)c3c(F)c(F)c(F)c(F)c3F)CC2)n1)N1CCN(c2cccc(C(F)(F)F)c2)CC1 [compound 193]	+ (“+” stands for 50-80% inhibition)
O=C(c1csc(C2CCN(S(=O)(=O)c3cccs3)CC2)n1)N1CCN(c2cccc(C(F)(F)F)c2)CC1 [compound 194]	+ (“+” stands for 50-80% inhibition)

Structure (SMILES)	Biological activity (NF-κB inflammation assay, inhibition)
O=C(c1csc(C2CCN(S(=O)(=O)c3ccc(F)cc3Cl)CC2)n1)N1CCN(c2cccc(C(F)(F)F)c2)CC1 [compound 195]	+ (“+” stands for 50-80% inhibition)
O=C(c1csc(C2CCN(S(=O)(=O)c3ccccc3Br)CC2)n1)N1CCN(c2cccc(C(F)(F)F)c2)CC1 [compound 196]	+ (“+” stands for 50-80% inhibition)
O=C(c1csc(C2CCN(S(=O)(=O)c3c(Cl)nc4sccn34)CC2)n1)N1CCN(c2cccc(C(F)(F)F)c2)CC1 [compound 197]	+ (“+” stands for 50-80% inhibition)
O=C(c1csc(C2CCN(S(=O)(=O)Cc3ccccc3)CC2)n1)N1CCN(c2cccc(C(F)(F)F)c2)CC1 [compound 198]	+ (“+” stands for 50-80% inhibition)
O=C(c1csc(C2CCN(S(=O)(=O)c3ccc(Br)cc3)CC2)n1)N1CCN(c2cccc(C(F)(F)F)c2)CC1 [compound 199]	+ (“+” stands for 50-80% inhibition)
O=C(c1csc(C2CCN(S(=O)(=O)c3ccc(Cl)cc3Cl)CC2)n1)N1CCN(c2cccc(C(F)(F)F)c2)CC1 [compound 200]	+ (“+” stands for 50-80% inhibition)
O=C(c1csc(C2CCN(S(=O)(=O)c3cc(C(F)(F)F)cc(C(F)(F)F)c3)CC2)n1)N1CCN(c2cccc(C(F)(F)F)c2)CC1 [compound 201]	++ (“++” means 80-90%)
COc1ccc(Cl)cc1S(=O)(=O)N1CCC(c2nc(C(=O)N3CCN(c4cccc(C(F)(F)F)c4)CC3)cs2)CC1 [compound 202]	++ (“++” means 80-90%)
O=C(c1csc(C2CCN(S(=O)(=O)c3ccc(Br)s3)CC2)n1)N1CCN(c2cccc(C(F)(F)F)c2)CC1 [compound 203]	+ (“+” stands for 50-80% inhibition)
Cc1ccc(S(=O)(=O)N2CCC(c3nc(C(=O)N4CCN(c5cccc(C(F)(F)F)c5)CC4)cs3)CC2)cc1 [compound 204]	+ (“+” stands for 50-80% inhibition)
O=C(c1csc(C2CCN(S(=O)(=O)c3ccc(OC(F)(F)F)cc3)CC2)n1)N1CCN(c2cccc(C(F)(F)F)c2)CC1 [compound 205]	+ (“+” stands for 50-80% inhibition)
O=C(c1csc(C2CCN(S(=O)(=O)c3ccc(Cl)cc3)CC2)n1)N1CCN(c2cccc(C(F)(F)F)c2)CC1 [compound 206]	+ (“+” stands for 50-80% inhibition)
CC(=O)Nc1ccc(S(=O)(=O)N2CCC(c3nc(C(=O)N4CCN(c5cccc(C(F)(F)F)c5)CC4)cs3)CC2)cc1 [compound 207]	+ (“+” stands for 50-80% inhibition)
O=C(c1csc(C2CCN(S(=O)(=O)c3ccccc3)CC2)n1)N1CCN(c2cccc(C(F)(F)F)c2)CC1 [compound 208]	+ (“+” stands for 50-80% inhibition)
COc1cccc(C(=O)N2CCC(c3nc(C(=O)N4CCN(c5cccc(C(F)(F)F)c5)CC4)cs3)CC2)c1 [compound 209]	+ (“+” stands for 50-80% inhibition)
CN1CCOc2cc(C(=O)N3CCC(c4nc(C(=O)N5CCN(c6cccc(C(F)(F)F)c6)CC5)cs4)CC3)ccc21 [compound 210]	++ (“++” means 80-90%)
O=C(c1ccc2nccnc2c1)N1CCC(c2nc(C(=O)N3CCN(c4cccc(C(F)(F)F)c4)CC3)cs2)CC1 [compound 211]	+ (“+” stands for 50-80% inhibition)
O=C(c1csc(C2CCN(C(=O)c3cccs3)CC2)n1)N1CCN(c2cccc(C(F)(F)F)c2)CC1 [compound 212]	+ (“+” stands for 50-80% inhibition)
O=C(c1csc(C2CCN(C(=O)c3cc4ccccc4s3)CC2)n1)N1CCN(c2cccc(C(F)(F)F)c2)CC1 [compound 213]	++ (“++” means 80-90%)
O=C(C=Cc1ccccc1)N1CCC(c2nc(C(=O)N3CCN(c4cccc(C(F)(F)F)c4)CC3)cs2)CC1 [compound 214]	++ (“++” means 80-90%)
O=C(c1ccc(C(F)(F)F)c(F)c1)N1CCC(c2nc(C(=O)N3CCN(c4cccc(C(F)(F)F)c4)CC3)cs2)CC1 [compound 215]	+++ (“+++” stands for 90-100% inhibition)
Cn1nc(C(C)(C)C)cc1C(=O)N1CCC(c2nc(C(=O)N3CCN(c4cccc(C(F)(F)F)c4)CC3)cs2)CC1 [compound 216]	++ (“++” means 80-90%)
